Assay results from the NIST ThermoML archive (doi:10.1016/j.jct.2018.01.005).

Experiments:
[1] = excess molar enthalpy (molar enthalpy of mixing); xn = mol fraction of the nth substance listed; settings: 100 kPa, Liquid, Flow calorimetry
[2] = 101.33 kPa, Liquid, Vibrating tube method

CC1(C)C(=O)[C@]2(C)CC[C@H]1C2 [(-)-fenchone] + CCCCCO
excess molar enthalpy [kJ/mol], [1]
Settings | 283.15 K | 298.15 K | 313.15 K | 328.15 K
x1 = 0.049 | 0.212 | 0.234 | 0.246 | 0.254
x1 = 0.099 | 0.404 | 0.451 | 0.482 | 0.492
x1 = 0.199 | 0.747 | 0.823 | 0.868 | 0.889
x1 = 0.3 | 0.966 | 1.08 | 1.16 | 1.19
x1 = 0.397 | 1.11 | 1.25 | 1.34 | 1.38
x1 = 0.498 | 1.15 | 1.31 | 1.41 | 1.46
x1 = 0.596 | 1.12 | 1.28 | 1.38 | 1.43
x1 = 0.702 | 1.01 | 1.15 | 1.23 | 1.27
x1 = 0.803 | 0.804 | 0.902 | 0.959 | 0.987
x1 = 0.898 | 0.456 | 0.522 | 0.563 | 0.583
x1 = 0.949 | 0.24 | 0.27 | 0.29 | 0.301

CC1(C)C(=O)[C@]2(C)CC[C@H]1C2 [(-)-fenchone] + CCCCO
excess molar enthalpy [kJ/mol], [1]
Settings | 283.15 K | 298.15 K | 313.15 K | 328.15 K
x1 = 0.05 | 0.213 | 0.238 | 0.255 | 0.266
x1 = 0.1 | 0.404 | 0.455 | 0.489 | 0.51
x1 = 0.203 | 0.731 | 0.813 | 0.87 | 0.907
x1 = 0.3 | 0.929 | 1.04 | 1.12 | 1.18
x1 = 0.396 | 1.06 | 1.21 | 1.31 | 1.37
x1 = 0.499 | 1.12 | 1.28 | 1.39 | 1.46
x1 = 0.603 | 1.09 | 1.25 | 1.36 | 1.43
x1 = 0.692 | 0.99 | 1.13 | 1.22 | 1.28
x1 = 0.805 | 0.768 | 0.869 | 0.929 | 0.962
x1 = 0.898 | 0.441 | 0.51 | 0.553 | 0.573
x1 = 0.95 | 0.225 | 0.258 | 0.278 | 0.287

CCCCO [butan-1-ol]
[2]
Settings | mass density [kg/m3]
283.15 K | 817.11
298.15 K | 805.72
313.15 K | 794.4
328.15 K | 782.11

CCCCCO [pentan-1-ol]
[2]
Settings | mass density [kg/m3]
283.15 K | 821.79
298.15 K | 810.9
313.15 K | 799.8
328.15 K | 788.82
